# Experimental data: US20240150719A1, “MAGNETIC SHEAR BIOREACTOR APPARATUS AND METHODS” (THE BOARD OF REGENTS OF THE UNIVERSITY OF TEXAS SYSTEM, priority 2021, published 2024)
# Entries after “also recorded” stand apart in the source; their conditions may differ.
# What was measured:
# [1] = tested on: TNF-α secretion by splenocytes; assay: TNF-α cytokine suppression assay: MSCs in static co-culture with LPS- or PHA-activated splenocytes; type: cell-based, mouse; settings: for ability of shear treated MSC to suppress TNF-α production: inhibitor 10 μM, six MSC donor lines, compared to Static Vehicle
# Procedure: FIG. 12 illustrates TNF-αcytokine suppression assays that highlight functional enhancement of MSC immunomodulation. Human MSCs preconditioned by mechanical force (15 dyne/cm2 shear stress for 3 hours) are placed in static co-culture with lipopoly-saccharide (LPS) or phytohaemagglutinin (PHA)-activated splenocytes including macrophages, neutrophils, NK, B, and T cells. […] Lower values correspond to greater anti-inflammatory potency. hBM MSC, human bone marrow MSC; hAF MSC, amniotic fluid MSC; hAD MSC, adipose-derived MSC. P-values calculated by paired t-test, equal variance.
# Asterisks indicate p<0.001 compared to Static Vehicle. n=6 indicates six different MSC donor lines included in data shown.
# (§1) Similarly it was determined utilizing commercially available ELISAs that the media from human MSCs cultures that had been subject to fluid shear stress also contained immunomodulatory proteins, such as prostaglandin E2. In addition, Western blotting confirmed elevated protein levels (translation) of COX2, TSG6, and IL1RN. Actin protein expression levels, which are constant, were used as a control for baseline protein expression. […] It was also determined that this induction could be abrogated by the addition of 10 uM of the NF-kappa B antagonist BAY11-7085 (FIG. 11). Furthermore by utilizing commercially available ELISAs, it was determined that the media from human MSCs cultures that had been subject to fluid shear stress for as little as 3 hours had immunosuppressive activity, as evidenced by the 10-50% reduction in TNF-α when treated hMSCs were co-cultured with activated immune cells from the spleen (FIG. 12).
# [2] = tested on: COX2 protein; assay: Western blot of COX2 protein in fluid shear stressed human MSCs; type: cell-based; settings: BAY11-7085 10 μM; human MSC, 8 hours of fluid shear stress
# Procedure: FIG. 11 illustrates representative Western blots showing increased intracellular COX2 protein, which is reduced by NF-kB antagonist BAY11-7085 (10 μM).
# A pilot study was conducted to provide proof of principle that fluid shear stress can be used to condition stem cells, alter gene expression, and enhance functional activities. To exemplify the conditioning activity of shear stress of the type provided by the present system, but on a much smaller analytical scale, force (shear stress) was applied using custom fabricated slides or IBIDI® small-scale microfluidics channel slides obtained from IBIDI, LLC. (Verona, WI, USA). Human samples were harvested from bone marrow (BM), amniotic fluid (AF), or adipose (AD) tissue, processed for isolation and expansion of hMSC, and stored frozen. […] The number of live cells present was determined using trypan blue dye exclusion. Live cell counts were determined on a hemacytometer and the cells were resuspended to obtain the desired concentration for each assay (see Table 1). […]
# Similarly it was determined utilizing commercially available ELISAs that the media from human MSCs cultures that had been subject to fluid shear stress also contained immunomodulatory proteins, such as prostaglandin E2. […]
# [3] = tested on: human amniotic fluid MSC; assay: Priming agents combined with shear stress: anti-inflammatory signaling in human amniotic MSC line; type: cell-based
# Procedure: FIG. 14 illustrates that priming agents complement shear-induced anti-inflammatory signaling. Darkened bars represent treatment combinations that indicate a substantial induction of the pathway by shear stress and cytokines (IFN-γ, 20 ng/ml; TNF-α, 50 ng/ml). In this low-performance human amniotic MSC line, TSG6 was induced by shear stress only. IDO was induced by IFN-γ only. hAF MSC, human amniotic fluid MSC.
# as §1
molecule,measurement,setting,value
CC(C)(C)c1ccc(S(=O)(=O)/C=C/C#N)cc1 [BAY11-7085],ability of shear treated MSC to suppress TNF-α production,[1],abrogate the positive effects of shear stress
same,shear-induced intracellular COX2 protein (Western blot),[2],abrogated; also recorded: reduced
COc1ccc2c(c1)c(CC(=O)O)c(C)n2C(=O)c1ccc(Cl)cc1 [Indomethacin],ability of shear treated MSC to suppress TNF-α production,[1],abrogate the positive effects of shear stress
CS(=O)(=O)Nc1ccc([N+](=O)[O-])cc1OC1CCCCC1 [NS-398],ability of shear treated MSC to suppress TNF-α production,[1],abrogate the positive effects of shear stress
"CCCCC(C)(C)C(O)C=CC1C(O)CC(=O)C1CC=CCCCC(=O)O (stereo not shown) [dmPGE2, 16,16′-dimethyl prostaglandin E2]",TNF-α production with ectopic dmPGE2,[1]; dmPGE2 10 μM,reduced TNF-α to levels produced in the presence of sheared MSCs; also recorded: mimics MSC suppression
IFN-γ: cytokine used as priming agent,IDO induction,"[3]; IFN-γ 20 ng/ml, low-performance human amniotic MSC line",induced
same,induction of COX2 and HMOX1 in sheared MSCs with added priming agent,[3]; addition of IFN-γ to sheared MSCs versus MSC not subject to shear,greater induction
